A short description of data set [1]: Percent encapsulation of mRNA in lipid nanoparticles (Quant-iT Ribogreen). It is filed as physicochemical. The following applies: for % encapsulation mRNA Leptin: Table 2, leptin mRNA in LNP with the cationic lipid. The essentials: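 LNPs made by T-junction mixing of ethanolic lipids (cationic lipid:DSPC:cholesterol:PEG lipid 40:10:38:2, N:P 4:1) with mRNA in citrate pH 5.8-6.0, then dialysed against PBS overnight at 4 °C. RiboGreen fluorescence (ex 480/em 520 nm) measured in TE ± 0.75% Triton X-100; encapsulation = (total − free)/total.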

The nature of data set [2]: Entrapment and RNA concentration of RSV-F replicon liposomes (Quant-iT RiboGreen). It is filed as physicochemical. The method, then:
RNA was encapsulated in liposomes made essentially by the method of Geall et al. (2012) PNAS vol. 109 (36): 14604-14609, Jeffs et al. (2005) Pharmaceutical Research 22 (3):362-372 and Maurer et al. (2001) Biophysical Journal, 80: 2310-2326 The liposomes were made of 10% DSPC (zwitterionic), 40% cationic lipid, 48% cholesterol and 2% PEG-conjugated DMG (2 kDa PEG). These proportions refer to the % moles in the total liposome.
Briefly, lipids were dissolved in ethanol (2 ml), a RNA replicon was dissolved in buffer (2 ml, 100 mM sodium citrate, pH 6) and these were mixed with 2 ml of buffer followed by 1 hour of equilibration. The mixture was then dialized overnight against 1×PBS. The resulting product contained liposomes, with ˜70-95% encapsulation efficiency. For in vitro and in vivo experiments formulations were diluted to the required RNA concentration with 1×PBS.
The percentage of encapsulated RNA and RNA concentration were determined by Quant-iT RiboGreen RNA reagent kit (Invitrogen), following manufacturer's instructions. The ribosomal RNA standard provided in the kit was used to generate a standard curve. Liposomes were diluted 10× or 100× in 1×TE buffer (from kit) before addition of the dye. Separately, liposomes were diluted 10× or 100× in 1×TE buffer containing 0.5% Triton X before addition of the dye (to disrupt the liposomes and thus to assay total RNA). Thereafter an equal amount of dye was added to each solution and then ˜180 μL of each solution after dye addition was loaded in duplicate into a 96 well tissue culture plate. The fluorescence (Ex 485 nm, Em 528 nm) was read on a microplate reader. All liposome formulations were dosed in vivo based on the encapsulated amount of RNA.
A self-replicating replicon encoding RSV F protein was administered to BALB/c mice, 8 animals per group, by bilateral intramuscular vaccinations (50 μL per leg) on days 0 and 21 with the replicon (0.1 and 1 ng) formulated as liposomes with the lipids described below. All liposomes tested were composed of 40% cationic lipid, 10% DSPC, 48% cholesterol and 2% PEG-DMG with similar amounts of RNA. The liposomes were all prepared using the same technique as described above.
% entrapment (% E), Concentration of RNA (Conc), particle size measured by DLS, and polydispersity reported by DLS of LNPs prepared with different cationic lipids

The subject of a further data set is RSV F protein. The experiment in a line: RSV immunogenicity: IgG titers after two IM immunizations with vA375 RNA expressing RSV-F in LNPs. It counts as in vivo, BALB/c mice. The following applies: IM days 0 and 21, two weeks after two immunizations.
[3] abbreviates: RSV-F replicon LNP prepared for 1st IM.
[4] abbreviates: RSV-F replicon LNP prepared for 2nd IM.

Experimental findings from patent US11013696B2, “Lipids and lipid compositions for the delivery of active agents” (Novartis AG, priority 2013, dated 2021) are described below.

Take `CCCCCCCCCCCCC(CCOC(=O)CCCCC(COC(=O)CCCCCCC)COC(=O)CCCCCCC)OC(=O)OCCCN(CC)CC` (stereo not shown) [Example 1, 2-(10-dodecyl-3-ethyl-8,14-dioxo-7,9,13-trioxa-3-azaoctadecan-18-yl)propane-1,3-diyl dioctanoate]: the “% Encap.” value in data set [1] (FLuc mRNA) was 94.7%; in data set [1] (Gluc mRNA) it was 97.3%; in data set [1] (hFIX mRNA) it was 94.0%; in data set [1] (hLeptin mRNA), 97.1%; in data set [1] (mEPO mRNA) it was 95.8%. The “% encapsulation mRNA Leptin” value in data set [1] is reported as 97.1%. For the same compound, the “% E (% entrapment)” value is reported as 91.11% in data set [2] (setting [3]) and 87.13% in data set [2] (setting [4]). For the same compound, the “Immunogenicity (2wp2, log10 IgG titers)” value with RSV F protein (0.1 ng vA375 RNA) is 3.98 log10 IgG titers; in the data set on RSV F protein (1 ng vA375 RNA), 4.22 log10 IgG titers.
For `CCCCC/C=C\C/C=C\CCCCCCCCC(CCC(=O)OC(COC(=O)CCCCCCC)COC(=O)CCCCCCC)OC(=O)OCCCN(C)C` (stereo not shown) [Example 94, 2-(((13Z,16Z)-4-(((3-(dimethylamino)propoxy)carbonyl)oxy)docosa-13,16-dienoyl)oxy)propane-1,3-diyl dioctanoate], the “% Encap.” value in data set [1] (FLuc mRNA) amounted to 93.7%; in data set [1] (Gluc mRNA) it was 95.9%; in data set [1] (hFIX mRNA) it was 96.9%; in data set [1] (hLeptin mRNA) it was 98.1%; in data set [1] (mEPO mRNA), 96.4%. The “% encapsulation mRNA Leptin” value in data set [1] was determined as 98.1%.
Regarding `CCCCCCCCCC(=O)OCCC(CC(CCCCCCCC)CCCCCCCC)OC(=O)OCCCN(C)C` (stereo not shown) [Example 70, 3-(((3-(dimethylamino)propoxy)carbonyl)oxy)-5-octyltridecyl decanoate], in data set [1], the “% encapsulation mRNA Leptin” value worked out at 98.3%. For the same compound, the “% E (% entrapment)” value in data set [2] (setting [3]) is 90.75%; in data set [2] (setting [4]), 94.24%. The “Immunogenicity (2wp2, log10 IgG titers)” value with RSV F protein (0.1 ng vA375 RNA) is listed as 3.90 log10 IgG titers; with RSV F protein (1 ng vA375 RNA), 4.37 log10 IgG titers.
`CCCCC/C=C\C/C=C\CCCCCCCC(=O)OCC(COC(=O)CCCCCCC/C=C\C/C=C\CCCCC)OC(=O)CCC(CCCCCCCCCCCC)OC(=O)OCCCN(C)C` (stereo not shown) [Example 80, (9Z,9′Z,12Z,12′Z)-2-((4-(((3-(dimethylamino)propoxy)carbonyl)oxy)hexadecanoyl)oxy)propane-1,3-diyl bis(octadeca-9,12-dienoate)]: the “% Encap.” value in data set [1] (FLuc mRNA) turned out to be 85.3%; in data set [1] (mEPO mRNA) it was 96.2%.
On to `CCCCCCCCCCCCC(CCOC(=O)CCCCC(OCCCCCCCC)OCCCCCCCC)OC(=O)OCCCN(CC)CC` (stereo not shown) [Example 16, 3-(((3-(diethylamino)propoxy)carbonyl)oxy)pentadecyl 6,6-bis(octyloxy)hexanoate], for which the “% Encap.” value in data set [1] (FLuc mRNA) was 96.8%; in data set [1] (Gluc mRNA), 97.9%; in data set [1] (hFIX mRNA) it was 96.9%; in data set [1] (hLeptin mRNA), 98.1%; in data set [1] (mEPO mRNA), 97.9%. Besides, in data set [1], the “% encapsulation mRNA Leptin” value is reported as 97.7%.
For `CCCCCCCCCCCCC(CCOC(=O)CCCCC(OCC(CC)CCCC)OCC(CC)CCCC)OC(=O)OCCCN(CC)CC` (stereo not shown) [Example 18, 3-(((3-(diethylamino)propoxy)carbonyl)oxy)pentadecyl 6,6-bis((2-ethylhexyl)oxy)hexanoate], the “% encapsulation mRNA Leptin” value in data set [1] is listed as 97.1%. Also, the results for the “% E (% entrapment)” value in data set [2] (setting [3]) and in data set [2] (setting [4]) were 96.15% and 96.25%, respectively. The “Immunogenicity (2wp2, log10 IgG titers)” value with RSV F protein (0.1 ng vA375 RNA) stood at 3.5 log10 IgG titers; in the data set on RSV F protein (1 ng vA375 RNA) it was 4.26 log10 IgG titers.
